Read-outs that look alike come from different tables or passages of the source.
Columns and labels:
[1] = test system: weeds (ABUTH, AMATA, AMBEL, CHEAL, ERICA); assay: Postemergence herbicide evaluation, overall average % weed control across ABUTH, AMATA, AMBEL, CHEAL, ERICA; type: in vivo; details: post-emergence, average over the five weeds, read-out: Overall Ave % Weed Control; for pest or weed control at 280 g/ha: 280 g ae/ha; for pest or weed control at 560 g/ha: 560 g ae/ha
[2] = test system: Amaranthus rudis (AMATA), tall water hemp; assay: Postemergence herbicide evaluation, growth of Amaranthus rudis (AMATA); type: in vivo; details: Amaranthus tuberculatus, post-emergence, percent reduction in plant size relative to untreated control, read-out: Ave. AMATA; for pest or weed control at 280 g/ha: 280 g ae/ha; for pest or weed control at 560 g/ha: 560 g ae/ha
[3] = test system: Chenopodium album (CHEAL), common lambsquarters; assay: Postemergence herbicide evaluation, growth of Chenopodium album (CHEAL); type: in vivo; details: Chenopodium album, post-emergence, percent reduction in plant size relative to untreated control, read-out: Ave. CHEAL; for pest or weed control at 280 g/ha: 280 g ae/ha; for pest or weed control at 560 g/ha: 560 g ae/ha
[4] = test system: Ambrosia artemisiifolia (AMBEL), common ragweed; assay: Postemergence herbicide evaluation, growth of Ambrosia artemisiifolia (AMBEL); type: in vivo; details: Ambrosia artemisiifolia, post-emergence, percent reduction in plant size relative to untreated control, read-out: AVE. AMBEL; for pest or weed control at 280 g/ha: 280 g ae/ha; for pest or weed control at 560 g/ha: 560 g ae/ha
[5] = Volatility of compounds measured by thermogravimetric analysis (TGA); type: physicochemical
[6] = test system: glyphosate resistant Conyza canadensis (L.) (ERICA), horseweed; assay: Postemergence herbicide evaluation, growth of Conyza canadensis (ERICA); type: in vivo; details: Erigeron canadensis, post-emergence, percent reduction in plant size relative to untreated control, read-out: Ave. ERICA; for pest or weed control at 280 g/ha: 280 g ae/ha; for pest or weed control at 560 g/ha: 560 g ae/ha
[7] = test system: Abutilon theophrasti (ABUTH), velvetleaf; assay: Postemergence herbicide evaluation, growth of Abutilon theophrasti (ABUTH); type: in vivo; details: Abutilon theophrasti, post-emergence, percent reduction in plant size relative to untreated control, read-out: AVE. ABUTH; for pest or weed control at 280 g/ha: 280 g ae/ha; for pest or weed control at 560 g/ha: 560 g ae/ha

Row | SMILES | pest or weed control at 280 g/ha ([1]; 168 h, 7 DAA) [%] | pest or weed control at 560 g/ha ([1]; 168 h, 7 DAA) [%] | pest or weed control at 280 g/ha ([1]; 336 h, 14 DAA) [%] | pest or weed control at 560 g/ha ([1]; 336 h, 14 DAA) [%] | pest or weed control at 280 g/ha ([1]; 504 h, 21 DAA) [%] | pest or weed control at 560 g/ha ([1]; 504 h, 21 DAA) [%] | pest or weed control at 280 g/ha ([2]; 168 h, 7 DAA) [%] | pest or weed control at 560 g/ha ([2]; 168 h, 7 DAA) [%] | pest or weed control at 280 g/ha ([2]; 336 h, 14 DAA) [%] | pest or weed control at 560 g/ha ([2]; 336 h, 14 DAA) [%] | pest or weed control at 280 g/ha ([2]; 504 h, 21 DAA) [%] | pest or weed control at 560 g/ha ([2]; 504 h, 21 DAA) [%] | pest or weed control at 280 g/ha ([3]; 168 h, 7 DAA) [%] | pest or weed control at 560 g/ha ([3]; 168 h, 7 DAA) [%] | pest or weed control at 280 g/ha ([3]; 336 h, 14 DAA) [%] | pest or weed control at 560 g/ha ([3]; 336 h, 14 DAA) [%] | pest or weed control at 280 g/ha ([3]; 504 h, 21 DAA) [%] | pest or weed control at 560 g/ha ([3]; 504 h, 21 DAA) [%] | pest or weed control at 280 g/ha ([4]; 168 h, 7 DAA) [%] | pest or weed control at 560 g/ha ([4]; 168 h, 7 DAA) [%] | further results
1 | O=C(COc1ccc(Cl)cc1Cl)ON1CCCCC1 [Compound A11, Piperidin-1-yl 2-(2,4-dichlorophenoxy)acetate] | 71 | 75 | 87 | 87 | 91 | 95 | 73 | 75 | 89 | 85 | 85 | 88 | 68 | 70 | 75 | 80 | 80 | 97 | 65 | 78 | pest or weed control at 280 g/ha ([4]; 336 h, 14 DAA): 90%; pest or weed control at 560 g/ha ([4]; 336 h, 14 DAA): 97%; pest or weed control at 280 g/ha ([4]; 504 h, 21 DAA): 95%; pest or weed control at 560 g/ha ([4]; 504 h, 21 DAA): 100%; TGA Data (rate of weight loss, volatility) [5]: 4 µg/min; pest or weed control at 280 g/ha ([6]; 168 h, 7 DAA): 65%; pest or weed control at 560 g/ha ([6]; 168 h, 7 DAA): 68%; pest or weed control at 280 g/ha ([6]; 336 h, 14 DAA): 90%; pest or weed control at 560 g/ha ([6]; 336 h, 14 DAA): 85%; pest or weed control at 280 g/ha ([6]; 504 h, 21 DAA): 95%; pest or weed control at 560 g/ha ([6]; 504 h, 21 DAA): 95%; pest or weed control at 280 g/ha ([7]; 168 h, 7 DAA): 83%; pest or weed control at 560 g/ha ([7]; 168 h, 7 DAA): 85%; pest or weed control at 280 g/ha ([7]; 336 h, 14 DAA): 93%; pest or weed control at 560 g/ha ([7]; 336 h, 14 DAA): 89%; pest or weed control at 280 g/ha ([7]; 504 h, 21 DAA): 99%; pest or weed control at 560 g/ha ([7]; 504 h, 21 DAA): 95%
2 | Cc1cc(OC(=O)COc2ccc(Cl)cc2Cl)n(C)n1 [Compound E6, 1,3-Dimethyl-1H-pyrazol-5-yl 2-(2,4-dichlorophenoxy)acetate] | 69 | 73 | 79 | 86 | 82 | 90 | 70 | 75 | 82 | 80 | 70 | 77 | 63 | 70 | 65 | 85 | 58 | 90 | 65 | 73 | pest or weed control at 280 g/ha ([4]; 336 h, 14 DAA): 80%; pest or weed control at 560 g/ha ([4]; 336 h, 14 DAA): 88%; pest or weed control at 280 g/ha ([4]; 504 h, 21 DAA): 93%; pest or weed control at 560 g/ha ([4]; 504 h, 21 DAA): 96%; TGA Data (rate of weight loss, volatility) [5]: 1 µg/min; pest or weed control at 280 g/ha ([6]; 168 h, 7 DAA): 63%; pest or weed control at 560 g/ha ([6]; 168 h, 7 DAA): 65%; pest or weed control at 280 g/ha ([6]; 336 h, 14 DAA): 83%; pest or weed control at 560 g/ha ([6]; 336 h, 14 DAA): 83%; pest or weed control at 280 g/ha ([6]; 504 h, 21 DAA): 96%; pest or weed control at 560 g/ha ([6]; 504 h, 21 DAA): 95%; pest or weed control at 280 g/ha ([7]; 168 h, 7 DAA): 83%; pest or weed control at 560 g/ha ([7]; 168 h, 7 DAA): 83%; pest or weed control at 280 g/ha ([7]; 336 h, 14 DAA): 88%; pest or weed control at 560 g/ha ([7]; 336 h, 14 DAA): 93%; pest or weed control at 280 g/ha ([7]; 504 h, 21 DAA): 96%; pest or weed control at 560 g/ha ([7]; 504 h, 21 DAA): 94%
